Data: US20240293379A1, “THERAPEUTIC AGENT FOR CANCER OF PATIENT WITH DECREASE IN RB1 FUNCTION USING MYT1 INHIBITOR AND CHEMOTHERAPEUTIC AGENT IN COMBINATION, AND TREATMENT METHOD THEREOF” (Chugai Seiyaku Kabushiki Kaisha, priority 2022, published 2024)
Where two headings read alike, the source gives them in different places.

How the values were obtained:
Experiment in all cases: Pemetrexed cytotoxicity test upon suppression of expression of MYT1
Format in all cases: cell-based
[1] = system: ChaGo-K-1; details: Homo sapiens, ChaGo-K-1 (RB1 mutant), 7 days
Experimental: (§1) Thereafter, the plates were shaken to transfect each siRNA at a final concentration of 10 nM.
(§2) The −Log 2 value of fold change of IC50 and the maximum value of Bliss score, which are indexes of the combination effect, were calculated by comparing with the actually obtained cell survival curve, and described in Table 6 (see Non Patent Literature 9).

[2] = system: NCI-H460; details: Homo sapiens, NCI-H460 (RB1 wild-type), 7 days
Experimental: as §1, §2

[3] = system: NCI-H292; details: Homo sapiens, NCI-H292 (RB1 wild-type), 7 days
Experimental: as §1, §2

[4] = system: HOP-62; details: Homo sapiens, HOP-62 (RB1 wild-type), 7 days
Experimental: as §1, §2

[5] = system: NCI-H2122; details: Homo sapiens, NCI-H2122 (RB1 wild-type), 7 days
Experimental: as §1, §2

[6] = system: LU65; details: Homo sapiens, LU65 (RB1 mutant), 7 days
Experimental: as §1, §2

[7] = system: A549; details: Homo sapiens, A549 (RB1 wild-type), 7 days
Experimental: as §1, §2

[8] = system: NCI-H322; details: NCI-H322 (RB1 wild-type), 7 days
Experimental: as §1, §2

[9] = system: NCI-H1155; details: Homo sapiens, NCI-H1155 (RB1 mutant), 7 days
Experimental: as §1, §2

[10] = system: ABC-1; details: Homo sapiens, ABC-1 (RB1 wild-type), 7 days
Experimental: as §1, §2

[11] = system: PC-9; details: Homo sapiens, PC-9 (RB1 wild-type), 7 days
Experimental: as §1, §2

[12] = system: NCI-H358; details: Homo sapiens, NCI-H358 (RB1 wild-type), 7 days
Experimental: as §1, §2

[13] = system: NCI-H2110; details: NCI-H2110 (RB1 mutant), 7 days
Experimental: as §1, §2

[14] = system: NCI-H1993; details: Homo sapiens, NCI-H1993 (RB1 wild-type), 7 days
Experimental: as §1, §2

[15] = system: EKVX; details: Homo sapiens, EKVX (RB1 wild-type), 7 days
Experimental: as §1, §2

[16] = system: NCI-H596; details: Homo sapiens, NCI-H596 (RB1 mutant), 7 days
Experimental: as §1, §2

[17] = system: NCI-H441; details: Homo sapiens, NCI-H441 (RB1 wild-type), 7 days
Experimental: as §1, §2

[18] = system: NCI-H1666; details: Homo sapiens, NCI-H1666 (RB1 wild-type), 7 days
Experimental: as §1, §2

[19] = read-out: IC50 of pemetrexed, MYT1 #16, MYT1 siRNA #16 10 nM
[20] = read-out: IC50 of pemetrexed, MYT1 #18, MYT1 siRNA #18 10 nM
[21] = read-out: IC50 of pemetrexed, NT, negative control siRNA 10 nM

## Nc1nc2[nH]cc(CCc3ccc(C(=O)N[C@@H](CCC(=O)O)C(=O)O)cc3)c2c(=O)[nH]1 [pemetrexed]
[1]; [19]
  IC50: 133 nM
[1]; [20]
  IC50: 192 nM
[1]; [21]
  IC50: 914 nM
[2]; [19]
  IC50: 465 nM
[2]; [20]
  IC50: 563 nM
[2]; [21]
  IC50: 667 nM
[3]; [19]
  IC50: 71.1 nM
[3]; [20]
  IC50: 187 nM
[3]; [21]
  IC50: 391 nM
[4]; [19]
  IC50: 98.1 nM
[4]; [20]
  IC50: 91.9 nM
[4]; [21]
  IC50: 175 nM
[5]; [19]
  IC50: 13.5 nM
[5]; [20]
  IC50: 47.2 nM
[5]; [21]
  IC50: 159 nM
[6]; Lu-65, read-out: IC50 of pemetrexed, MYT1 #16, MYT1 siRNA #16 10 nM
  IC50: 134 nM
[6]; Lu-65, read-out: IC50 of pemetrexed, MYT1 #18, MYT1 siRNA #18 10 nM
  IC50: 140 nM
[6]; Lu-65, read-out: IC50 of pemetrexed, NT, negative control siRNA 10 nM
  IC50: 1070 nM
[7]; [19]
  IC50: 1530 nM
[7]; [20]
  IC50: 1950 nM
[7]; [21]
  IC50: 2850 nM
[8]; [19]
  IC50: 1030 nM
[8]; [20]
  IC50: 805 nM
[8]; [21]
  IC50: 1600 nM
[9]; [19]
  IC50: 673 nM
[9]; [20]
  IC50: 1650 nM
[9]; [21]
  IC50: 9840 nM
[10]; [19]
  IC50: 363 nM
[10]; [20]
  IC50: 313 nM
[10]; [21]
  IC50: 973 nM
[11]; [19]
  IC50: 32.9 nM
[11]; [20]
  IC50: 77.7 nM
[11]; [21]
  IC50: 145 nM
[12]; [19]
  IC50: 531 nM
[12]; [20]
  IC50: 333 nM
[12]; [21]
  IC50: 986 nM
[13]; [19]
  IC50: 10.5 nM
[13]; [20]
  IC50: 41.4 nM
[13]; [21]
  IC50: 227 nM
[14]; [19]
  IC50: 24.6 nM
[14]; [20]
  IC50: 106 nM
[14]; [21]
  IC50: 181 nM
[15]; [19]
  IC50: 166 nM
[15]; [20]
  IC50: 263 nM
[15]; [21]
  IC50: 404 nM
[16]; [19]
  IC50: 7.01 nM
[16]; [20]
  IC50: 21 nM
[16]; [21]
  IC50: 385 nM
[17]; [19]
  IC50: 95.6 nM
[17]; [20]
  IC50: 865 nM
[17]; [21]
  IC50: 884 nM
[18]; [19]
  IC50: 473 nM
[18]; [20]
  IC50: 291 nM
[18]; [21]
  IC50: 619 nM
